The values that follow come from ChEMBL document CHEMBL1132808, “Solid-phase synthesis of di- and tripeptidic hydroxamic acids as inhibitors of procollagen C-proteinase” (Bioorg Med Chem Lett, 2000).

“And” between values parts separate entries of the source, which are not always exact repeats. Identical values can stand only once. Where a SMILES comes first, the peptide text is derived from it. [ ]: non-standard residue; d: D form. The star is where a group is joined. ξ: configuration not given here. ξW = NC(Cc1c[nH]c2ccccc12)C(=O)O; Cbz = O=C(OCc1ccccc1)*; ξT = CC(O)C(N)C(=O)O; NHOH = ON*

By IC50 is commonly meant the concentration needed to halve the response being measured. Higher therefore signals lower potency.

The assay concerns the target T1, Bone morphogenetic protein 1 (Homo sapiens, UniProt P13497).
T1 sequence (P13497 whole entry): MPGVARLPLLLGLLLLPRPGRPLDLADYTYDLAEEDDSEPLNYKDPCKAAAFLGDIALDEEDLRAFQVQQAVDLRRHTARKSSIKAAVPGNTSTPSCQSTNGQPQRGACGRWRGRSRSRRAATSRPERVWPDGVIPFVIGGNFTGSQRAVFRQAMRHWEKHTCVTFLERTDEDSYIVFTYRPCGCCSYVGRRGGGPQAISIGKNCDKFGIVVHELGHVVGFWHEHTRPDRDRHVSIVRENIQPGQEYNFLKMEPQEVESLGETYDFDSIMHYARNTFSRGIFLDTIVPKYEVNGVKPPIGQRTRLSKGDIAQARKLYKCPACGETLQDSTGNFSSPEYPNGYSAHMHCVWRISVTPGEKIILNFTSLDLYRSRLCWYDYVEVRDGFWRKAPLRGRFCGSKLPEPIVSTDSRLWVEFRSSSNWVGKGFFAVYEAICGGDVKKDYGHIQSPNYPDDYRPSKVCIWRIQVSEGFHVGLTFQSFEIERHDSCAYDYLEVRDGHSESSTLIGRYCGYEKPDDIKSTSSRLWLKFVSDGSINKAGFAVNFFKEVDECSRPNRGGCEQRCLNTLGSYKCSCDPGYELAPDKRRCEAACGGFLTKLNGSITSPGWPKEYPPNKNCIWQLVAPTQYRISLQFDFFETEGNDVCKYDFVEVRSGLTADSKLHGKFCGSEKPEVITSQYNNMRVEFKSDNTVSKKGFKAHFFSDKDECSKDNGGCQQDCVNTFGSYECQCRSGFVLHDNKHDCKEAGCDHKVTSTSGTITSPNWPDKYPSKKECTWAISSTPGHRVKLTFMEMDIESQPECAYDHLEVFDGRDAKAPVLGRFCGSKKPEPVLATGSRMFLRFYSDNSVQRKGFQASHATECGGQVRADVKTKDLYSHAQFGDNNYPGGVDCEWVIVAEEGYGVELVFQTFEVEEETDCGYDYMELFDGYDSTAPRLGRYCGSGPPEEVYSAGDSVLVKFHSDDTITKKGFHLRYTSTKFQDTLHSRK
The assay is described as follows: Inhibitory effect against Procollagen C-terminal proteinase.
In turn, `CC[C@@H](C)[C@H](NC(=O)C(Cc1ccc(F)cc1)NC(=O)OCc1ccccc1)C(=O)N[C@@H](Cc1cscn1)C(=O)NO` (stereo partly drawn) returned an IC50 of 78 nM.
With `CC[C@@H](C)[C@@H](NS(=O)(=O)c1ccc(Br)c(Br)c1)C(=O)N[C@H](Cc1cscn1)C(=O)NO` the figure was 30 nM; with `CC[C@@H](C)[C@@H](NCN(Cc1ccc(F)cc1)C(=O)c1cccc(C)c1)C(=O)N[C@H](Cc1cscn1)C(=O)NO`, 110 nM; with `CC[C@H](C)[C@H](NS(=O)(=O)c1cc(Br)c(Br)s1)C(=O)NC(Cc1cscn1)C(=O)NO` (stereo partly drawn), 32 nM.
Regarding `CC[C@@H](C)[C@@H](NC(=O)OCc1ccccc1)C(=O)N[C@H](Cc1ccccn1)C(=O)NO`, the IC50 stood at 220 nM.
To `CC[C@H](C)[C@@H](NC(=O)Nc1cc(Cl)cc(Cl)c1)C(=O)N[C@H](Cc1cc2ccccc2[nH]1)C(=O)NO` belongs 5100 nM; to `O=C(CCCNC(=O)OCc1ccccc1)N[C@@H](Cc1c[nH]c2ccccc12)C(=O)NO`, 19000 nM; to `CC[C@H](C)[C@@H](NC(=O)Nc1ccccc1[N+](=O)[O-])C(=O)N[C@H](Cc1cc2ccccc2[nH]1)C(=O)NO`, 2100 nM.
Regarding `CC[C@@H](C)[C@@H](NC(=O)OCc1ccccc1Br)C(=O)N[C@H](Cc1cscn1)C(=O)NO`, it took 78 nM to reach half-maximal inhibition (IC50).
On to `CC[C@@H](C)[C@@H](NC(=O)OCc1ccccc1)C(=O)NC(Cc1ccc(-c2ccccc2)cc1)C(=O)NO` (stereo partly drawn), for which inhibition was half-maximal at 200 nM (IC50).
With `CC[C@@H](C)[C@@H](NS(=O)(=O)c1cc(Cl)c(Cl)cc1Cl)C(=O)N[C@H](Cc1cscn1)C(=O)NO` the figure was 49 nM; with `CC[C@H](C)[C@H](NS(=O)(=O)c1ccc(Br)c(Br)c1)C(=O)N[C@@H](CNC(=O)OCc1ccccc1)C(=O)NO`, 26 nM; with `CC(=O)N[C@@H](CCCNC(=N)N)C(=O)N[C@@H](C)C(=O)NO` (Ac-Arg-Ala-{NHOH}), greater than 800000 nM.
With `O=C(NC(Cc1c[nH]c2ccccc12)C(=O)NO)OCc1ccccc1` (stereo not drawn) the figure was 67000 nM.
With `CC[C@@H](C)[C@H](NC(=O)C(Cc1ccccc1)NC(=O)OCc1ccccc1)C(=O)N[C@@H](Cc1cscn1)C(=O)NO` (stereo partly drawn) the figure was 44 nM; with `CC[C@@H](C)[C@@H](NC(=O)OCc1cc(Cl)cc(Cl)c1)C(=O)N[C@H](Cc1cscn1)C(=O)NO`, 150 nM.
`CC[C@@H](C)[C@@H](NCN(Cc1ccc(F)cc1)C(=O)c1ccc(Br)cc1)C(=O)N[C@H](Cc1cscn1)C(=O)NO`: the IC50 was found to be 89 nM.
`CC(O)C(NC(=O)OCc1ccccc1)C(=O)N[C@@H](Cc1c[nH]c2ccccc12)C(=O)NO` (stereo partly drawn) (Cbz-[ξT]-Trp-{NHOH}): the IC50 was 15000 nM.
Turning to `O=C(N[C@H](Cc1ccccc1)C(=O)N[C@@H](Cc1c[nH]c2ccccc12)C(=O)NO)OCc1ccccc1`, half-maximal inhibition (IC50) required 18000 nM.
The molecule `CC[C@@H](C)[C@@H](NC(=O)OCc1ccccc1)C(=O)N[C@H](Cc1cnc[nH]1)C(=O)NO` gave an IC50 of 250 nM.
To `CC[C@@H](C)[C@H](NC(=O)C(CCSC)NC(=O)OCc1ccccc1)C(=O)N[C@@H](Cc1cscn1)C(=O)NO` (stereo partly drawn) belongs 43 nM; to `O=C(N[C@@H](Cc1ccccc1)C(=O)N[C@@H](Cc1c[nH]c2ccccc12)C(=O)NO)OCc1ccccc1`, 17000 nM; to `CC[C@H](C)[C@@H](NC(=O)NCCc1ccccc1)C(=O)N[C@H](Cc1cc2ccccc2[nH]1)C(=O)NO`, 3600 nM.
With `CC(=O)N[C@@H](Cc1ccc(O)cc1)C(=O)N[C@@H](Cc1ccc(O)cc1)C(=O)NCC(=O)NO` (Ac-Tyr-Tyr-Gly-{NHOH}) the figure was 65000 nM; with `CC[C@@H](C)[C@@H](NC(=O)OCc1cccc(C(F)(F)F)c1)C(=O)N[C@H](Cc1cscn1)C(=O)NO`, 90 nM; with `CC[C@H](C)[C@@H](Nc1cccc(C(F)(F)F)c1)C(=O)N[C@H](Cc1cc2ccccc2[nH]1)C(=O)NO`, 2800 nM.
In turn, `CC[C@H](C)[C@H](NS(=O)(=O)c1cc(C)c(Cl)cc1C)C(=O)N[C@@H](CNC(=O)OCc1ccccc1)C(=O)NO` came in with an IC50 of 67 nM.
The molecule `O=C(N[C@H](Cc1ccc(O)cc1)C(=O)N[C@@H](Cc1c[nH]c2ccccc12)C(=O)NO)OCc1ccccc1` returned an IC50 of 20000 nM.
To `CC(=O)N[C@@H](Cc1ccc(O)cc1)C(=O)NCC(=O)NO` belongs 280000 nM.
To `CC[C@@H](C)[C@@H](NC(=O)OCc1ccccc1)C(=O)N[C@H](Cc1ccc([N+](=O)[O-])cc1)C(=O)NO` belongs 200 nM and 220 nM; to `O=C(NC(Cc1c[nH]c2ccccc12)C(=O)N[C@@H](Cc1c[nH]c2ccccc12)C(=O)NO)OCc1ccccc1` (stereo partly drawn) (Cbz-[ξW]-Trp-{NHOH}), 19000 nM; to `O=C(O)CCC(NC(=O)OCc1ccccc1)C(=O)N[C@H](Cc1c[nH]c2ccccc12)C(=O)NO` (stereo partly drawn), 3000 nM.
With `CC[C@@H](C)[C@@H](NC(=O)OCc1ccc(Cl)c(Cl)c1)C(=O)N[C@H](Cc1cscn1)C(=O)NO` the figure was 73 nM; with `CC[C@@H](C)[C@@H](NCN(Cc1ccc(F)cc1)C(=O)c1ccc(F)cc1)C(=O)N[C@H](Cc1cscn1)C(=O)NO`, 90 nM; with `CC[C@@H](C)[C@@H](NC(=O)OCc1ccccc1)C(=O)N[C@H](Cc1ccc(Br)cc1)C(=O)NO`, 200 nM.
For the molecule `CC[C@@H](C)[C@@H](NCN(Cc1ccc(F)cc1)C(=O)c1cccc(Cl)c1)C(=O)N[C@H](Cc1cscn1)C(=O)NO`, the IC50 worked out at 53 nM.
`CC[C@@H](C)[C@H](NC(=O)C(CC(C)C)NC(=O)OCc1ccccc1)C(=O)N[C@@H](Cc1cscn1)C(=O)NO` (stereo partly drawn) showed an IC50 of 110 nM.
`CC[C@H](C)[C@H](NS(=O)(=O)c1cc(Br)c(Br)s1)C(=O)N[C@@H](CNC(=O)OCc1ccccc1)C(=O)NO` came in with an IC50 of 52 nM.
As to `CC[C@@H](C)[C@@H](NC(=O)OCc1ccccc1)C(=O)N[C@H](Cc1cscn1)C(=O)NO` (stereo in doubt; form 2), the 50% inhibitory concentration (IC50) was 110 nM.
To `O=C(NC(C(=O)N[C@H](Cc1c[nH]c2ccccc12)C(=O)NO)c1ccccc1)OCc1ccccc1` (stereo partly drawn) belongs 1200 nM; to `CC[C@@H](C)[C@@H](NC(=O)OCc1ccccc1)C(=O)NC(Cc1ccc(OC(C)(C)C)cc1)C(=O)NO` (stereo partly drawn), 130 nM.
With `CC[C@@H](C)[C@@H](NC(=O)OCc1ccccc1)C(=O)NC(Cc1ccccc1Cl)C(=O)NO` (stereo partly drawn) the figure was 190 nM; with `CC[C@@H](C)[C@@H](NC(=O)OCc1ccccc1)C(=O)NCC(NCc1ccccc1)C(=O)NO` (stereo partly drawn), 94 nM; with `CNC(=O)[C@H](CCC(N)=O)NC(=O)[C@H](CC(=O)O)CC(=O)NO`, 68000 nM.
Take `CC(C)C(NC(=O)OCc1ccccc1)C(=O)N[C@H](Cc1c[nH]c2ccccc12)C(=O)NO` (stereo partly drawn): the half-maximal inhibitory concentration (IC50) came out at 1900 nM.
`CC[C@@H](C)[C@@H](NC(=O)OCc1ccccc1)C(=O)N[C@H](Cc1cscn1)C(=O)NO` (stereo in doubt; form 1) had an IC50 of 110 nM.
The molecule `CC[C@H](C)[C@@H](Nc1ccc(Cl)c(Cl)c1)C(=O)N[C@H](Cc1cc2ccccc2[nH]1)C(=O)NO` displayed an IC50 of 750 nM.
To `CC[C@H](C)[C@@H](NC(=O)OCc1ccccc1)C(=O)N[C@H](Cc1c[nH]c2ccccc12)C(=O)NO` belongs 730 nM.
To `CC[C@@H](C)[C@H](NC(=O)C(Cc1c[nH]c2ccccc12)NC(=O)OCc1ccccc1)C(=O)N[C@@H](Cc1cscn1)C(=O)NO` (stereo partly drawn) belongs 67 nM; to `CC[C@@H](C)[C@@H](NC(=O)OCc1ccccc1)C(=O)N[C@H](Cc1ccc(Br)s1)C(=O)NO`, 210 nM.
With `CC[C@@H](C)[C@@H](NS(=O)(=O)c1cc(Cl)ccc1Cl)C(=O)N[C@H](Cc1cscn1)C(=O)NO` the figure was 29 nM; with `CC[C@H](C)[C@@H](NC(=O)Nc1ccccc1Cl)C(=O)N[C@H](Cc1cc2ccccc2[nH]1)C(=O)NO`, 5000 nM; with `CC[C@@H](C)[C@@H](NCN(Cc1ccc(F)cc1)C(=O)c1ccc(Cl)cc1)C(=O)N[C@H](Cc1cscn1)C(=O)NO`, 50 nM.
As to `CC[C@@H](C)[C@H](NC(=O)C(COCc1ccccc1)NC(=O)OCc1ccccc1)C(=O)N[C@@H](Cc1cscn1)C(=O)NO` (stereo partly drawn), the half-maximal inhibitory concentration (IC50) turned out to be 78 nM.
`CCCC(NC(=O)OCc1ccccc1)C(=O)N[C@H](Cc1c[nH]c2ccccc12)C(=O)NO` (stereo partly drawn) came in with an IC50 of 870 nM.
To `CNC(=O)C1CCCN1C(=O)[C@H](CCC(N)=O)NC(=O)[C@H](CC(=O)O)CC(=O)NO` (stereo partly drawn) belongs 22000 nM.
To `CC[C@@H](C)[C@@H](NS(=O)(=O)C1=CCC(C)(Cl)C=C1C)C(=O)N[C@H](Cc1cscn1)C(=O)NO` (stereo partly drawn) belongs 43 nM.
With `CC[C@H](C)[C@H](NS(=O)(=O)c1cc(Cl)ccc1Cl)C(=O)N[C@@H](CNC(=O)OCc1ccccc1)C(=O)NO` the figure was 65 nM.
